Columns and labels:
Y71 SC5314 = test: MIC80 determination, C. albicans clinical isolate Y71 SC5314; assay type: cell-based; conditions: Candida albicans
Method in brief: (§1)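 Inoculum OD600 0.005 (1.5 × 10^4 CFU); 30 °C, 200 rpm; 48 h S. cerevisiae, 24 h C. albicans; OD600 read-out; MIC80 from triplicates, 4-clone pools, 3 independent expts.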

wild-type CaCYP51 = wild-type CaCYP51 (Candida albicans, UniProt P10613); test: Reconstituted CYP51 activity assay, wild type; assay type: biochemical, C. albicans; conditions: 1 μM CaCyp51, 50 μM lanosterol; duplicate, mean ± SD
Sequence of wild-type CaCYP51 (P10613 whole entry): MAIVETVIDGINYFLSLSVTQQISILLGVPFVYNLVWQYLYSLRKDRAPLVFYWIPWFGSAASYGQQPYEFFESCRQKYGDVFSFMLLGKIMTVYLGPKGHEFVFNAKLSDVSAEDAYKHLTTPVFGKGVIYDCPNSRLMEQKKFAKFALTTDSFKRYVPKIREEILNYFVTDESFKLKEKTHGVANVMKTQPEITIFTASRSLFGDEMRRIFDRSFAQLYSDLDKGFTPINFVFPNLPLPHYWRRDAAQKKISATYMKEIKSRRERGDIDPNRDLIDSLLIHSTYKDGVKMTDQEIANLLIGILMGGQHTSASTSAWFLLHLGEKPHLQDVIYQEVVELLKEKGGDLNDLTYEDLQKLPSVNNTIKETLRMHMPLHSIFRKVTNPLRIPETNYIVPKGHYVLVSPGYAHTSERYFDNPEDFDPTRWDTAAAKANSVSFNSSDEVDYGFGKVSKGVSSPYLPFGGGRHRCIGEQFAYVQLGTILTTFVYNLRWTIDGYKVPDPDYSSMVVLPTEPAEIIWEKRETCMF
Description: (§2) The reconstituted CYP51 assay previously described contained 1 μM CaCyp51, 2 μM Homo sapiens cytochrome P450 reductase and 50 μM lanosterol in a final volume of 500 μL. After the addition of azole in DMSO (2.5 μL), reactions were incubated at 37 °C for 10 min prior to initiation by the addition of 100 μL 20 mM β-NADPH-Na4. Sterol substrates and products were extracted with ethyl acetate, derivatized with N,O-bis(trimethylsilyl)-trifluoroacetamide (BSTFA)–trimethylchlorosilane (TMCS) (99:1) in the presence of anhydrous pyridine, and analyzed by GC/MS as described previously. IC50 determinations were performed in duplicate. Nonlinear regression of inhibitor concentration vs normalized response was calculated by GraphPad Prism 10.4.0 for Windows (GraphPad Software, Boston, Massachusetts, USA, www.graphpad.com).

Y2513 OE ScCYP51 Y140H = test: MIC80 determination, strain Y2513; assay type: cell-based, S. cerevisiae; conditions: Saccharomyces cerevisiae
Method in brief: as §1

[1] = system: Y2300 ScCYP51 overexpressed; test: Agarose (disk) diffusion assay, strain Y2300; assay type: cell-based, S. cerevisiae; conditions: 10 nmol/disk, 30 °C, 48 h
Description: (§3) Final compounds were screened as racemic mixtures using agarose diffusion assays to visualize their inhibitory activity against a panel of recombinant S. cerevisiae strains i.e., S. cerevisiae strains expressing control levels of wild-type CYP51 (ScCYP51), overexpressed wild-type ScCYP51, overexpressed azole-resistant ScCYP51 Y140F/H mutations and overexpressed C. albicans efflux pumps MDR1a or CDR1B (Figure and Table S1).
(§4) The susceptibilities of S. cerevisiae and Candida species strains to azole compounds were observed as zones of growth inhibition in agarose diffusion assays. The disk diffusion assays were carried out as described by Keniya et al. Complete supplement mixture (CSM) agarose (0.6% agarose [wt/vol]; 20 mL of synthetic defined medium (SD); pH 6.8–7) was solidified in a rectangular Petri dish which was overlaid with CSM agarose (0.6% [wt/vol]; 5 mL; pH 6.8–7) seeded with yeast cells at an optical density (OD600) of 0.008 (118,000 cells per 1 mL of overlay). Azole compounds (10 nmol/disk) were applied to sterile BBL paper disks (Becton Dickinson Co., Sparks, MD) and placed on solidified overlays. Cell growth was assessed after incubation at 30 °C for 48 h.

CaCYP51 Y132F = CaCYP51 Y132F (Candida albicans, UniProt P10613, Y132F); test: Reconstituted CYP51 activity assay, Y132F; assay type: biochemical, C. albicans; conditions: 1 μM CaCyp51, 50 μM lanosterol; duplicate, mean ± SD
Sequence of CaCYP51 Y132F (P10613 whole entry Y132F): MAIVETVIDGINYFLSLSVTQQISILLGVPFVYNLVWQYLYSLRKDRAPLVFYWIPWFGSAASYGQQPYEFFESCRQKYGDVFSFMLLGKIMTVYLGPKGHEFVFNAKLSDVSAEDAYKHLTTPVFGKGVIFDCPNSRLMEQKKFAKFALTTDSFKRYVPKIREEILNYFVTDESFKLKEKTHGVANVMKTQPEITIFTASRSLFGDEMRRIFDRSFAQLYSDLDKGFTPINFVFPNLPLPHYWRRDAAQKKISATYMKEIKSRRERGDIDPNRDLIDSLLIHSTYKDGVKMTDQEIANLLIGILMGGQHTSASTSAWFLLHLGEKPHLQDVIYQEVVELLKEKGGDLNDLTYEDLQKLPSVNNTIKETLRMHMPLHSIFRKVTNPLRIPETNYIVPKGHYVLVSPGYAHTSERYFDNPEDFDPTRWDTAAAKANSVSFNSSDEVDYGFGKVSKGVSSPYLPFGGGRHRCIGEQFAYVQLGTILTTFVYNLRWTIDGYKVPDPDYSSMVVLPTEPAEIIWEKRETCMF
Description: as §2

[2] = system: Y2513 ScCYP51 Y140H mutant; test: Agarose (disk) diffusion assay, strain Y2513; assay type: cell-based, S. cerevisiae; conditions: 10 nmol/disk, 30 °C, 48 h
Description: as §3, §4

Y2301 OE ScCYP51 Y140F = test: MIC80 determination, strain Y2301; assay type: cell-based, S. cerevisiae; conditions: Saccharomyces cerevisiae
Method in brief: as §1

CYP1A2 = CYP1A2 (Homo sapiens, UniProt P05177); test: CYP IC50 profile, CYP1A2; assay type: biochemical; conditions: human liver drug metabolizing enzyme; read-out: CYP IC50 1A2
Sequence of CYP1A2 (P05177 whole entry, the tested form may be a part): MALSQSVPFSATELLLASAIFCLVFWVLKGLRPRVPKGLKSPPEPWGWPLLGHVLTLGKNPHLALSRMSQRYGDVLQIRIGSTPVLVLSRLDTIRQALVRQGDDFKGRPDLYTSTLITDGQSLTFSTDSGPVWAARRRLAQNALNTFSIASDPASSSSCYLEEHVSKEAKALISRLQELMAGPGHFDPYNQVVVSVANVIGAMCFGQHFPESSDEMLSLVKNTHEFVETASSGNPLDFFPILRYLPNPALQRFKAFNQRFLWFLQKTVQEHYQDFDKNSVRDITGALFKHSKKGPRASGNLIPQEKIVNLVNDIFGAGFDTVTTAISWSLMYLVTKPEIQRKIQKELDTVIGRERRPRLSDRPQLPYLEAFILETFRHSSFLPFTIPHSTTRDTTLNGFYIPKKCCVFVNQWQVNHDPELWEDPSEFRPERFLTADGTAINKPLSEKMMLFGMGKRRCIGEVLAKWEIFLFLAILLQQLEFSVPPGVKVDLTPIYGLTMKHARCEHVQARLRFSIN

[3] = system: Y525 MFS efflux pump CaMDR1a overexpressed; test: Agarose (disk) diffusion assay, strain Y525; assay type: cell-based, S. cerevisiae; conditions: 10 nmol/disk, 30 °C, 48 h
Description: as §3, §4

CaCYP51 Y132H + K143R = CaCYP51 Y132H + K143R (Candida albicans, UniProt P10613, K143R/Y132H); test: Reconstituted CYP51 activity assay, Y132H + K143R; assay type: biochemical, C. albicans; conditions: 1 μM CaCyp51, 50 μM lanosterol; duplicate, mean ± SD
Sequence of CaCYP51 Y132H + K143R (P10613 whole entry Y132H/K143R): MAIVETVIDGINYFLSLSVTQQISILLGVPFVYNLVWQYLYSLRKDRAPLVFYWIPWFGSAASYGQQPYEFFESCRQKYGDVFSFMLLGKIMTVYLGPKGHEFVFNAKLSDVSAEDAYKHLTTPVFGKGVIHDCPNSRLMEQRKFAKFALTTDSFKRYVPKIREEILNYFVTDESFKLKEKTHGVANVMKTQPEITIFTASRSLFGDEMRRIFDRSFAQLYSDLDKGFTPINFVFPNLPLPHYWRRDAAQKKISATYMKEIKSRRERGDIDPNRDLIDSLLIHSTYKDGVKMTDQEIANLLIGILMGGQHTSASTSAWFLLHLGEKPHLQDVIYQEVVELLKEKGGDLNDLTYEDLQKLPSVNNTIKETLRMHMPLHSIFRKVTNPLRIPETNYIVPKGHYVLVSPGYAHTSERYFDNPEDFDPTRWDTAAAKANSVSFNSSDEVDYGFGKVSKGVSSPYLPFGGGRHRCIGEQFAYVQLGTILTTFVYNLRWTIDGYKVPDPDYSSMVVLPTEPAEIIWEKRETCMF
Description: as §2

[4] = system: Y570 ABC efflux pump CaCDR1B overexpressed; test: Agarose (disk) diffusion assay, strain Y570; assay type: cell-based, S. cerevisiae; conditions: 10 nmol/disk, 30 °C, 48 h
Description: as §3, §4

MCF-10A cells = test: Viability (CellTiter Blue) assay; assay type: cell-based, human; conditions: 48 h, 10 μM to 1 pM
Description: Human epithelial breast cells, MCF-10A, were routinely cultured in DMEM/F-12 (Fisher Scientific, Loughborough, UK) containing 5% heat-inactivated horse serum (ThermoFisher Scientific, UK), 20 ng/mL hEGF (Merck Life Science, Dorset, UK), 500 ng/mL hydrocortisone (Merck Life Science, Dorset, UK) and 10 μg/mL insulin (Merck Life Science, Dorset, UK) under tissue culture conditions (37 °C, 5% CO2 in a humidified incubator). Cells were passaged upon reaching confluency using 0.25% Trypsin/EDTA (Fisher Scientific, Loughborough, UK) for a maximum of 15 passages from defrosting. […].
Cells were seeded in 100 μL of complete medium per well in a black, flat-bottomed, 96-well tissue-culture-treated plate (Fisher Scientific, Loughborough, UK) at a density of 4000 cells/well and incubated under tissue culture conditions for 24 h. Cells were then treated by mixing in an additional 100 μL of drug/diluent control in complete medium to give final concentrations of 10 μM–1 pM. DMSO was used as a vehicle control, and as a positive toxic control, staurosporine was added at a final concentration of 10 μM. Cells were then incubated for 48 h under tissue culture conditions before the treatments were replaced with fresh media before performing the CellTiter Blue assay (Promega, Southampton, UK) was performed following the manufacturer's instructions. […]

CYP3A4 = CYP3A4 (Homo sapiens, UniProt P08684); test: CYP IC50 profile, CYP3A4; assay type: biochemical; conditions: human liver drug metabolizing enzyme; read-out: CYP IC50 3A4
Sequence of CYP3A4 (P08684 whole entry): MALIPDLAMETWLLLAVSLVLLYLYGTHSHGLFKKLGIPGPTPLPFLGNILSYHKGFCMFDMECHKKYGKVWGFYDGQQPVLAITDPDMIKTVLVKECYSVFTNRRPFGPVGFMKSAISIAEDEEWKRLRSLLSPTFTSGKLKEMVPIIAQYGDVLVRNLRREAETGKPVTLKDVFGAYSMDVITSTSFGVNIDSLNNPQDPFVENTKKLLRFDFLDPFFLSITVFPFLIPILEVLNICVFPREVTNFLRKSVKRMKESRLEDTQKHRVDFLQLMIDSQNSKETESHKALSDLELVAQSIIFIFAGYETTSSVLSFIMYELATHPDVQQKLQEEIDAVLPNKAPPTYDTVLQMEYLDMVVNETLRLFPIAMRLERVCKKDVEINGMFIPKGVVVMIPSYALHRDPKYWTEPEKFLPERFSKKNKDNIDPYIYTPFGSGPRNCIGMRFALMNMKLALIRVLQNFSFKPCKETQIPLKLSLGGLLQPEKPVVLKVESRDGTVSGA

CYP2C9 = CYP2C9 (Homo sapiens, UniProt P11712); test: CYP IC50 profile, CYP2C9; assay type: biochemical; conditions: human liver drug metabolizing enzyme; read-out: CYP IC50 2C9
Sequence of CYP2C9 (P11712 whole entry): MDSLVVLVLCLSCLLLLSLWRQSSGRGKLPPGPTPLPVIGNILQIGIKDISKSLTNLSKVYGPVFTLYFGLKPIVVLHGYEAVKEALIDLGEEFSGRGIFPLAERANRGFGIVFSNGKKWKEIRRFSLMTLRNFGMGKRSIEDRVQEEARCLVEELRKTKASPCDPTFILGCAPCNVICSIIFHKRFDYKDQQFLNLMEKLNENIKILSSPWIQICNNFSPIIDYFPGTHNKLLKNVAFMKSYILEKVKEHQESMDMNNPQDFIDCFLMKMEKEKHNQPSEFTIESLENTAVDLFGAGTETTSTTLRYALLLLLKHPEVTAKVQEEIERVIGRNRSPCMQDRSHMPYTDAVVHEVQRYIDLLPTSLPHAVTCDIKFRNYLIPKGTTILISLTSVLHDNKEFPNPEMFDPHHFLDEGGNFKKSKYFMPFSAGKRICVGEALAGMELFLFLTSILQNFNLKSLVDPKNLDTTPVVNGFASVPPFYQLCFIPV

Y610 FHB1 = test: MIC80 determination, C. albicans clinical isolate Y610 FHB1; assay type: cell-based; conditions: Candida albicans; C. albicans clinical isolate Y610 FHB1 (weakly expresses CaCDR1); pH 7, 24 h
Method in brief: as §1

Y2766 OE CauCDR1 = test: MIC80 determination, strain Y2766; assay type: cell-based, S. cerevisiae; conditions: Saccharomyces cerevisiae
Description: Cells were seeded at an OD600 nm of 0.005 (1.5 × 10^4 CFU), and the plates were incubated at 30 °C with shaking at 200 rpm for 48 h for S. cerevisiae strains and 24 h for C. albicans . Cell growth was assessed by measuring the OD600 nm using a Synergy 2 multimode plate reader (BioTek Instruments, VT, USA). Each MIC80 was determined using triplicate measurements for pools of 4 clones of each strain in three separate experiments.

2711 CnCYP51 OE CnCPR = test: MIC80 determination, strain 2711; assay type: cell-based, S. cerevisiae
Method in brief: as §1

For `O=C(NCC(O)(Cn1cncn1)c1ccc(F)cc1F)c1ccc(-c2ccc(OC(F)(F)F)cc2)cc1` (stereo not drawn) [Compound 22, N-(2-(2,4-Difluorophenyl)-2-hydroxy-3-(1H-1,2,4-triazol-1-yl)propyl)-4’-(trifluoromethoxy)-[1,1’-biphenyl]-4-carboxamide], the MIC (Y71 SC5314; SC5314, supplement csv) was 40 nM, the MIC80 (Y71 SC5314; C. albicans clinical isolate Y71 SC5314, pH 7, 24 h) was 0.04 µM and the IC50 (wild-type CaCYP51) was 669 nM. The MIC80 (Y2513 OE ScCYP51 Y140H; 48 h, pH 6.8) was 0.078 ± 0.056 µM, the MIC (Y2513 OE ScCYP51 Y140H; read-out: MIC (nM) S. cerevisiae Y2513) was 78 ± 56 nM and the “zone of growth inhibition (inhibitory activity in words)” value (“zone of growth inhibition” for short) [1] was “visible reduction in potency”. For the same compound, the IC50 (CaCYP51 Y132F) was 1240 ± 37.9 nM, the “zone of growth inhibition” value [2] was “unaffected inhibition zone size” and the MIC80 (Y2301 OE ScCYP51 Y140F; 48 h, pH 6.8) was 0.093 ± 0.046 µM. The MIC (Y2301 OE ScCYP51 Y140F; read-out: MIC (nM) S. cerevisiae Y2301) was 93 ± 46 nM, the IC50 (CYP1A2) was 9330 ± 1390 nM and the “zone of growth inhibition” value [3] was “no effect on its potency”. For the same compound, the IC50 (CaCYP51 Y132H + K143R) was 8490 ± 1270 nM, the “zone of growth inhibition” value [4] was “conferred resistance” and the “cell viability (tolerance in words)” value (MCF-10A cells) was “very well tolerated”. For the same compound, the IC50 (CYP3A4) was 1620 ± 230 nM, the IC50 (CYP2C9) was greater than 25000 nM and the MIC80 (Y610 FHB1) was 0.153 ± 0.067 µM. For the same compound, the MIC80 (Y2766 OE CauCDR1) was 20.9 µM, the MIC80 (2711 CnCYP51 OE CnCPR; Saccharomyces cerevisiae) was 0.018 µM and the MIC (2711 CnCYP51 OE CnCPR; read-out: MIC (nM) C. neoformans model Y2711) was 18 nM.

From publication PMC12169614, “Exploring Long Arm Amide-Linked Side Chains in the Design of Antifungal Azole Inhibitors of Sterol 14α-Demethylase (CYP51)” (Journal of Medicinal Chemistry, 2025)
